Series [1] is described as follows: in vitro. Conditions: human, Toxicity IC50 (nM) ± SD, HDF, healthy cell line HDF, SRB assay, 72 h exposure.
The test system of series [2] is Human Dermal Fibroblasts cell line (HDF). The following applies: read-out: Toxicity IC50 (nM) ± SD, HDF; healthy cell line HDF, SRB assay, 72 h exposure.
Series [3] concerns SKOV-3 (ovarian cancer cell line). In words: cells. In kind it is cell-based, human. Conditions: Homo sapiens, SK-OV-3; SRB assay, 72 h exposure; read-out: Anticancer activity IC50 (nM) ± SD, SKOV-3.
The subject of series [4] is PC-3 (human prostate cancer cell line). Description: cells. The format is cell-based. Conditions: Homo sapiens; SRB assay, 72 h exposure; read-out: Anticancer activity IC50 (nM) ± SD, PC-3.
The subject of series [5] is SKBR-3, SKOV-3, PC-3, U-87 cells. Description: SRB cytotoxicity assay, values summarised over cancer cell lines. The format is cell-based, human.
Series [6] deals with U-87MG cells (glioblastoma cell line). In words: cells. The format is cell-based, human. Conditions: for IC50: Homo sapiens, U-87 MG, SRB assay, 72 h exposure, read-out: Anticancer activity IC50 (nM) ± SD, U-87.
Series [7] deals with SKBR-3 (human breast cancer cell line). In words: cells. In kind it is cell-based. Conditions: for IC50: SRB assay, 72 h exposure, read-out: Anticancer activity IC50 (nM) ± SD, SKBR-3.
Setting [8] is: Homo sapiens, SKBR-3, SKOV-3, PC-3, U-87, read-out: Anticancer IC50 over the studied cancer cell lines.

Experimental findings from PMC8788354 (Journal of Enzyme Inhibition and Medicinal Chemistry, 2022) are described below.

Like-named read-outs stand apart in the source and are kept apart here.

Take `COc1cc2c(c(OC)c1OC)-c1ccc(=O)c(OCc3ccc(/C=C/c4ccccn4)cc3)cc1[C@@H](NC(C)=O)CC2` [Compound 7b]: the IC50 in series [1] is 4 to 5 nM; in series [2] it was 5.11 ± 0.85 nM; in series [3], 2.69 ± 0.02 nM; in series [4], 2.45 ± 0.52 nM; in series [5] (setting [8]), 2 to 2.5 nM; in series [6] it was 2.43 ± 0.12 nM. The IC50 in series [7] (Homo sapiens, SK-BR-3, 72 h) turned out to be 2.09 ± 0.33 nM.
For `COc1cc2c(c(OC)c1OC)-c1ccc(OCc3ccc(/C=C/c4ccccn4)cc3)c(=O)cc1[C@@H](NC(C)=O)CC2` [Compound 8b], the 50% inhibitory concentration (IC50) in series [1] was 4 to 5 nM; in series [2] it was 4.83 ± 0.27 nM; in series [3], 2.84 ± 0.03 nM; in series [4], 2.63 ± 0.77 nM; in series [5] (setting [8]) it was 2 to 2.5 nM; in series [6], 2.49 ± 0.05 nM. Besides, in series [7] (Homo sapiens, SK-BR-3, 72 h), the half-maximal inhibitory concentration (IC50) was determined as 2.77 ± 0.04 nM.
In the case of `C/C=C/COc1cc2c(ccc1=O)-c1c(cc(OC)c(OC)c1OC)CC[C@@H]2NC(C)=O` [Compound 3e], the half-inhibitory concentration (IC50) in series [1] is 2.13 ± 0.06 nM; in series [3] it was 0.98 ± 0.02 nM; in series [4] it was 0.96 ± 0.01 nM; in series [5] (setting [8]), 0.94 to 0.98 nM; in series [5] (SKBR-3, SKOV-3, PC-3, U-87, read-out: Anticancer IC50 over the studied cancer cell lines), ~0.9 nM; in series [6], 0.95 ± 0.01 nM. Also, the IC50 in series [7] (Homo sapiens, SK-BR-3, 72 h) worked out at 0.94 ± 0.06 nM. In addition, in series [5] (SI = IC50 HDF/IC50 cancer cell line), the “Selectivity indexes (SIs), all studied cancer cell lines” value is given as ~2.2.
`C=CCCOc1ccc2c(cc1=O)[C@@H](NC(C)=O)CCc1cc(OC)c(OC)c(OC)c1-2` [Compound 4h]: the IC50 is 2.71 ± 0.08 nM in series [1]; 1.27 ± 0.16 nM in series [3]; 1.22 ± 0.03 nM in series [4]; ~1.5 nM in series [5] (Homo sapiens, average over cancer cell lines, read-out: Average anticancer IC50); 1.07 ± 0.12 nM in series [6]; 1.69 ± 0.05 nM in series [7] (Homo sapiens, SK-BR-3, 72 h). In addition, in series [6] (SI = IC50 HDF/IC50 U-87), the “Selectivity index (SI), U-87” value is ~2.5.
As to `COc1cc2c(c(OC)c1OC)-c1ccc(=O)c(OCc3ccc(/C=C/c4cnc5ccccc5c4)cc3)cc1[C@@H](NC(C)=O)CC2` [Compound 7c], the IC50 in series [1] is 2.16 ± 0.6 nM; in series [3], 1.03 ± 0.09 nM; in series [4], 1.52 ± 0.01 nM; in series [5] (setting [8]), 1.03 to 1.73 nM; in series [6], 1.73 ± 0.09 nM; in series [7] (Homo sapiens, SK-BR-3, 72 h), 1.51 ± 0.02 nM.
`COc1cc2c(c(OC)c1OC)-c1ccc(OCc3ccc(/C=C/c4cnc5ccccc5c4)cc3)c(=O)cc1[C@@H](NC(C)=O)CC2` [Compound 8c]: the concentration for half-maximal inhibition (IC50) is 2.77 ± 0.25 nM in series [1]; 1.41 ± 0.02 nM in series [3]; 1.47 ± 0.05 nM in series [4]; 1.03 to 1.73 nM in series [5] (setting [8]); 1.65 ± 0.03 nM in series [6]; ~1 nM in series [7] (Homo sapiens, SK-BR-3, 72 h). Also, the 50% inhibitory concentration (IC50) in series [7] worked out at 1.05 ± 0.06 nM. The “Selectivity index (SI), SKBR-3” value in series [7] (SI = IC50 HDF/IC50 SKBR-3) is listed as ~2.6.
Regarding `COc1cc2c(c(OC)c1OC)-c1ccc(=O)c(OCc3cn([C@@H]4O[C@H](COC(C)=O)[C@@H](OC(C)=O)[C@H](OC(C)=O)[C@H]4NC(C)=O)nn3)cc1[C@@H](NC(C)=O)CC2` [Compound 5d], the IC50 in series [1] amounted to 7.99 ± 0.04 nM; in series [3], 6.03 ± 0.19 nM; in series [4] it was 6.39 ± 0.08 nM; in series [6], 6.11 ± 0.26 nM; in series [7] (Homo sapiens, SK-BR-3, 72 h), 6.29 ± 0.25 nM.
